Experimental data: US11667651B2, “Aminopyridine derivatives as phosphatidylinositol phosphate kinase inhibitors” (HiberCell, Inc., priority 2017, dated 2023)

Tests used:
Type in all cases: biochemical
PIP4K2B = target: T1, PIP4K2B (Homo sapiens, UniProt P78356); assay: Trans-FI P kinase assay PIP4K2B (Table 4); settings: compounds listed under IC50 bins; read-out: Trans-FI P kinase assays: PIP4K2B IC50
T1 construct: made in house; host or cells: E. coli
T1 sequence (P78356 1-416): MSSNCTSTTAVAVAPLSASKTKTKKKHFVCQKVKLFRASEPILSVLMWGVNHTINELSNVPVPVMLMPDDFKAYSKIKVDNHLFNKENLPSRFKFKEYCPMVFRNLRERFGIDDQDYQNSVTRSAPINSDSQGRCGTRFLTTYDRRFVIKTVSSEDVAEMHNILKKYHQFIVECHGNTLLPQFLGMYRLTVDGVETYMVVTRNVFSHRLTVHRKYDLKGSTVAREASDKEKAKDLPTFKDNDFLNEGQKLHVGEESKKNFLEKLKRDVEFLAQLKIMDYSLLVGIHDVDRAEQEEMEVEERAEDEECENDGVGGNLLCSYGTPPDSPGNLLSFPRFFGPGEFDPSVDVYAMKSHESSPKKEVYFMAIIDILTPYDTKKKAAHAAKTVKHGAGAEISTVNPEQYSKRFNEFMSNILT
How it was run: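 Transcreener FI detection (Ex 584/Em 623) of GDP, converted via calibration curve, gives IC50 from residual activity versus log concentration (highest 4.8 μM). Reaction: 80 μM PI5P plus DOPE carrier, 100 μM GTP, 5 nM GST-tagged enzyme, pH 7.3 HEPES with MgCl2 and 5% DMSO, 2 h after 1 h enzyme-compound preincubation at 27° C.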

PIP4K2A [1] = target: T2, PIP4K2A (Homo sapiens, UniProt P48426); assay: ADP-glo kinase assay PIP4K 2A (Table 3); set-up: made in house; host or cells: E. coli; settings: compounds listed under IC50 bins
T2 sequence (P48426 1-406): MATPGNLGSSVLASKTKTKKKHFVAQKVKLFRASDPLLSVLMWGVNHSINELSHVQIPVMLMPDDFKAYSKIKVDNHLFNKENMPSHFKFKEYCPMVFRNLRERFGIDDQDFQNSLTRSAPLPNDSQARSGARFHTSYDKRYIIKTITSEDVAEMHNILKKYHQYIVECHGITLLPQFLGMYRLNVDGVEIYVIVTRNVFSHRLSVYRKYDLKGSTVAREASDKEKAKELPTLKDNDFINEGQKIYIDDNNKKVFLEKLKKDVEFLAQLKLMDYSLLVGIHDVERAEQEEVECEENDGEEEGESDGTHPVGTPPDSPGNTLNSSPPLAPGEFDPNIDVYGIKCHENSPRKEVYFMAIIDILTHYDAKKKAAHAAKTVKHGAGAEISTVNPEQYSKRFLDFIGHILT
How it was run: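 Full-length PIP4K2A (4 nM in the mix) with 100 μM PI(5)P diC8 pre-incubated 15 min with compound in MOPS pH 7.2, 25 mM MgCl2; ATP added (60 μM solution), 1 h at RT. ADP formed read by ADP-Glo luminescence; 10-point curves versus DMSO controls fitted to IC50.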

PIP4K2A [2] = target: T2, PIP4K2A; assay: Kinase Assay PIP4K2 A (Table 2); set-up: 4 nM PIP4K2A (full length protein, SignalChem); purchased SignalChem; settings: compounds listed under IC50 bins
How it was run: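 Full-length PIP4K2A (4 nM in the added mix, with 100 μM PI(5)P diC8) pre-incubated 15 min at RT with compounds (10-point, 3-fold series) in 20 mM MOPS pH 7.2, 25 mM MgCl2, 0.005% Tween 20. ATP added from a 60 μM solution, 1 h at RT; ADP-Glo luminescence, IC50 fitted from % inhibition versus DMSO.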

CC(C)C(=O)N1CCOc2ncc(Nc3ccc(-c4ccc(N5CCCC5=O)cc4)cn3)cc21 [Example 152, 1-(4-(6-((1-isobutyryl-2,3-dihydro-1H-pyrido[2,3-b][1,4]oxazin-7-yl)amino)pyridin-3-yl)phenyl)pyrrolidin-2-one]
IC50 (PIP4K2B): 10 to 100 nM
IC50 (PIP4K2A [1]): 10 to 100 nM
IC50 (PIP4K2A [2]): 1 to 10 nM

O=C1CCCN1c1ccc(-c2ccc(Nc3cnc4c(c3)N3C(=O)CC[C@H]3CO4)nc2)cc1 [Example 84, (S)-2-((5-(4-(2-oxopyrrolidin-1-yl)phenyl)pyridin-2-yl)amino)-6,6a,7,8-tetrahydro-9H-pyrido[2,3-b]pyrrolo[1,2-d][1,4]oxazin-9-one]
IC50 (PIP4K2B): 10 to 100 nM
IC50 (PIP4K2A [1]): 1 to 10 nM
IC50 (PIP4K2A [2]): 1 to 10 nM

COc1cccc(C(=O)Nc2cncc(Nc3ccc(-c4ccc(C(=O)N(C)C)cc4)cn3)c2)c1 [Example 141, 4-(6-((5-(3-methoxybenzamido)pyridin-3-yl)amino)pyridin-3-yl)-N,N-dimethylbenzamide]
IC50 (PIP4K2B): 10 to 100 nM
IC50 (PIP4K2A [1]): 10 to 100 nM
IC50 (PIP4K2A [2]): 1 to 10 nM

CN(C)C/C=C/C(=O)Nc1cccc(C(=O)NCc2ccc(Nc3ccc(-c4ccc(C(=O)N(C)C)cc4)cn3)cn2)c1 [Example 106, (E)-4-(6-((6-((3-(4-(dimethylamino)but-2-enamido)benzamido)methyl)pyridin-3-yl)amino)pyridin-3-yl)-N,N-dimethylbenzamide]
IC50 (PIP4K2B): 10 to 100 nM
IC50 (PIP4K2A [1]): 100 to 1000 nM
IC50 (PIP4K2A [2]): 100 to 1000 nM

CN(C)C(=O)c1ccc(-c2ccc(Nc3cncc(NC(=O)c4ccncc4)c3)nc2)cc1 [Example 130, N-(5-((5-(4-(dimethylcarbamoyl)phenyl)pyridin-2-yl)amino)pyridin-3-yl)isonicotinamide]
IC50 (PIP4K2B): 10 to 100 nM
IC50 (PIP4K2A [1]): 100 to 1000 nM
IC50 (PIP4K2A [2]): 10 to 100 nM

CN(C)C(=O)c1ccc(-c2ccc(Nc3cncc(NS(C)(=O)=O)c3)nc2)cc1 [Example 127, N,N-dimethyl-4-(6-((5-(methylsulfonamido)pyridin-3-yl)amino)pyridin-3-yl)benzamide]
IC50 (PIP4K2B): 10 to 100 nM
IC50 (PIP4K2A [1]): 10 to 100 nM
IC50 (PIP4K2A [2]): 10 to 100 nM

O=C1CCCN1c1ccc(-c2ccc(Nc3cnc4c(c3)N(C(=O)CO)CCO4)nc2)cc1 [Example 235, 1-(4-(6-((1-(2-hydroxyacetyl)-2,3-dihydro-1H-pyrido[2,3-b][1,4]oxazin-7-yl)amino)pyridin-3-yl)phenyl)pyrrolidin-2-one]
IC50 (PIP4K2B): 10 to 100 nM
IC50 (PIP4K2A [1]): 10 to 100 nM
IC50 (PIP4K2A [2]): 1 to 10 nM

O=C1CCCN1c1ccc(-c2ccc(Nc3cnc4c(c3)N3C(=O)CC[C@@H]3CO4)nc2)cc1 [Example 85, (R)-2-((5-(4-(2-oxopyrrolidin-1-yl)phenyl)pyridin-2-yl)amino)-6,6a,7,8-tetrahydro-9H-pyrido[2,3-b]pyrrolo[1,2-d][1,4]oxazin-9-one]
IC50 (PIP4K2B): 10 to 100 nM
IC50 (PIP4K2A [1]): 10 to 100 nM
IC50 (PIP4K2A [2]): 1 to 10 nM

COc1cncc(C(=O)Nc2cncc(Nc3ccc(-c4ccc(N5CCCC5=O)cc4)cn3)c2)c1 [Example 239, 5-methoxy-N-(5-((5-(4-(2-oxopyrrolidin-1-yl)phenyl)pyridin-2-yl)amino)pyridin-3-yl)nicotinamide]
IC50 (PIP4K2B): 10 to 100 nM
IC50 (PIP4K2A [1]): 10 to 100 nM
IC50 (PIP4K2A [2]): 1 to 10 nM

O=C1CCCN1c1ccc(-c2ccc(Nc3cncc(N4CCN(Cc5cnco5)C4=O)c3)nc2)cc1 [Example 166, 1-(oxazol-5-ylmethyl)-3-(5-((5-(4-(2-oxopyrrolidin-1-yl)phenyl)pyridin-2-yl)amino)pyridin-3-yl)imidazolidin-2-one]
IC50 (PIP4K2B): 10 to 100 nM
IC50 (PIP4K2A [1]): 10 to 100 nM
IC50 (PIP4K2A [2]): 10 to 100 nM

CN(C)C/C=C/C(=O)Nc1cccc(CCC(=O)Nc2cccc(CN3CCN(c4cncc(Nc5ccc(-c6ccc(C(=O)N(C)C)cc6)cn5)c4)C3=O)c2)c1 [Example 225, (E)-4-(6-((5-(3-(3-(3-(3-(4-(dimethylamino)but-2-enamido)phenyl)propanamido)benzyl)-2-oxoimidazolidin-1-yl)pyridin-3-yl)amino)pyridin-3-yl)-N,N-dimethylbenzamide]
IC50 (PIP4K2B): 10 to 100 nM
IC50 (PIP4K2A [1]): 10 to 100 nM
IC50 (PIP4K2A [2]): 1 to 10 nM

CN(C)C/C=C/C(=O)Nc1ccc(C(=O)Nc2cncc(Nc3ccc(-c4ccc(C(=O)N(C)C)cc4)cn3)c2)cc1 [Example 117, (E)-4-(6-((5-(4-(4-(dimethylamino)but-2-enamido)benzamido)pyridin-3-yl)amino)pyridin-3-yl)-N,N-dimethylbenzamide]
IC50 (PIP4K2B): 10 to 100 nM
IC50 (PIP4K2A [1]): 10 to 100 nM
IC50 (PIP4K2A [2]): 1 to 10 nM

CN(C)C(=O)c1ccc(-c2ccc(Nc3cncc(NC(=O)c4cccc(F)c4)c3)nc2)cc1 [Example 140, 4-(6-((5-(3-fluorobenzamido)pyridin-3-yl)amino)pyridin-3-yl)-N,N-dimethylbenzamide]
IC50 (PIP4K2B): 10 to 100 nM
IC50 (PIP4K2A [1]): 10 to 100 nM
IC50 (PIP4K2A [2]): 10 to 100 nM

CN(C)C(=O)c1ccc(-c2ccc(Nc3cncc(NC(=O)C4CCOCC4)c3)nc2)cc1 [Example 126, N-(5-((5-(4-(dimethylcarbamoyl)phenyl)pyridin-2-yl)amino)pyridin-3-yl)tetrahydro-2H-pyran-4-carboxamide]
IC50 (PIP4K2B): 10 to 100 nM
IC50 (PIP4K2A [1]): 100 to 1000 nM
IC50 (PIP4K2A [2]): 10 to 100 nM

CN(C)C(=O)c1ccc(-c2ccc(Nc3ccc(CCN4CCOCC4)nc3)nc2)cc1 [Example 51, N,N-dimethyl-4-(6-((6-(2-morpholinoethyl)pyridin-3-yl)amino)pyridin-3-yl)benzamide]
IC50 (PIP4K2B): > 1000 nM
IC50 (PIP4K2A [1]): > 1000 nM
IC50 (PIP4K2A [2]): > 1000 nM

CNC(=O)Nc1cncc(Nc2ccc(-c3ccc(C(=O)N(C)C)cc3)cn2)c1 [Example 124, N,N-dimethyl-4-(6-((5-(3-methylureido)pyridin-3-yl)amino)pyridin-3-yl)benzamide]
IC50 (PIP4K2B): 10 to 100 nM
IC50 (PIP4K2A [1]): 10 to 100 nM
IC50 (PIP4K2A [2]): 10 to 100 nM

CN(C)C/C=C/C(=O)N1CCC(C(=O)Nc2cccc(CCC(=O)Nc3cncc(Nc4ccc(-c5ccc(C(=O)N(C)C)cc5)cn4)c3)c2)CC1 [Example 110, (E)-1-(4-(dimethylamino)but-2-enoyl)-N-(3-(3-((5-((5-(4-(dimethylcarbamoyl)phenyl)pyridin-2-yl)amino)pyridin-3-yl)amino)-3-oxopropyl)phenyl)piperidine-4-carboxamide]
IC50 (PIP4K2B): > 1000 nM
IC50 (PIP4K2A [1]): 100 to 1000 nM
IC50 (PIP4K2A [2]): 100 to 1000 nM

CN(C)C(=O)c1ccc(-c2ccc(Nc3cncc(NC(=O)CC#N)c3)nc2)cc1 [Example 122, 4-(6-((5-(2-cyanoacetamido)pyridin-3-yl)amino)pyridin-3-yl)-N,N-dimethylbenzamide]
IC50 (PIP4K2B): 10 to 100 nM
IC50 (PIP4K2A [1]): 100 to 1000 nM
IC50 (PIP4K2A [2]): 10 to 100 nM

CN(C)C/C=C/C(=O)Nc1cccc(CCC(=O)Nc2cncc(Nc3ccc(-c4ccc(C(=O)N(C)C)cc4)cn3)c2)c1 [Example 103, (E)-4-(6-((5-(3-(3-(4-(dimethylamino)but-2-enamido)phenyl)propanamido)pyridin-3-yl)amino)pyridin-3-yl)-N,N-dimethylbenzamide]
IC50 (PIP4K2B): 10 to 100 nM
IC50 (PIP4K2A [1]): 10 to 100 nM
IC50 (PIP4K2A [2]): 1 to 10 nM

CN(C)C(=O)c1ccc(-c2ccc(Nc3cncc(NC(=O)CCc4cccc(NC(=O)C5CCNCC5)c4)c3)nc2)cc1 [Example 109, N-(3-(3-((5-((5-(4-(dimethylcarbamoyl)phenyl)pyridin-2-yl)amino)pyridin-3-yl)amino)-3-oxopropyl)phenyl)piperidine-4-carboxamide]
IC50 (PIP4K2B): 10 to 100 nM
IC50 (PIP4K2A [1]): 1 to 10 nM
IC50 (PIP4K2A [2]): 1 to 10 nM

CN(C)C/C=C/C(=O)NCCCCCC(=O)Nc1cccc(CCC(=O)Nc2cncc(Nc3ccc(-c4ccc(C(=O)N(C)C)cc4)cn3)c2)c1 [Example 112, (E)-4-(6-((5-(3-(3-(6-(4-(dimethylamino)but-2-enamido)hexanamido)phenyl)propanamido)pyridin-3-yl)amino)pyridin-3-yl)-N,N-dimethylbenzamide]
IC50 (PIP4K2B): > 1000 nM
IC50 (PIP4K2A [1]): 100 to 1000 nM
IC50 (PIP4K2A [2]): 100 to 1000 nM
